Where “and” joins values, the source holds several entries; their conditions need not be identical. Equal values may be shown once. Where a name gives a salt, the structure may show the parent alone. Read-outs that look alike come from different tables or passages of the source.
Experiments:
[1] = Biological activity of the cis-isomer; settings: in words, cis/trans comparison
mice [2] = assay: Induced tremors in mice, Table 1; assay type: in vivo; settings: Mus musculus, ip, read-out: Induced tremors ED50 (ip)
Source text: (§1) cat mice cat Guinea pig ileum
(§2) *with 95% confidence limits (Litchfield et al, 1949)

blood pressure = assay: Fall in blood pressure in vivo, Table 1; parameters: species or system cat; settings: iv; for ED50: Felis catus, read-out: Fall blood pressure ED50 (iv); for Fall blood pressure EPMR: equipotent molar ratio relative to ACh
Source text: as §1, §2
(§3) **EPMR: equipotent molar ratio relative to ACh. nmole: nannomoles

Guinea pig ileum = Guinea pig ileum induced contraction in vitro, Table 1; assay type: cell-based; settings: equipotent molar ratio relative to ACh
Source text: as §1
(iv) induced contraction
as §3

[3] = Acute toxicity in mice, Table 2; settings: mouse, in vivo
Source text: (§4) *with 95% confidence limits, Litchfield & Wilcoxon, (1949).

mice [4] = assay: Tremors (tremorigenic activity) in mice, Table 2; assay type: in vivo; settings: Mus musculus, ip, read-out: Tremors ED50 (ip)
Source text: (§5) Acute Toxicity, tremorigenic and sialigenic
as §4

mice [5] = assay: Salivation (sialigenic activity) in mice, Table 2; assay type: in vivo; settings: Mus musculus, ip, read-out: Salivation ED50 (ip)
Source text: as §5, §4
**Chiang & Leaders, 1971

mice [6] = settings: Chiang & Leaders, 1971; cited from earlier work
SCG = SCG (cat), antagonism to McN-A-343 induced contraction of NM; assay type: in vivo
Source text: |induced contraction of NM

[7] = tested on: Oxotromorine induced salivation; assay: Antagonism to oxotremorine induced salivation; assay type: in vivo, Mice; settings: Mus musculus, sc
Method: (§6) *With 95% confidence limits (Litchfield and Wilcoxon, 1949).
**Oxotromorine, 170 μg/kg, ip (1.15 ED50) induced salivation.
(§7) ^+ R1 =R2 =.PHI.,HCl is injected 20 min. prior to […]

[8] = tested on: Oxotromorine induced tremors; assay: Antagonism to oxotremorine induced tremors; assay type: in vivo, Mice; settings: Mus musculus, sc
Method: as §6, §7

[9] = tested on: autonomic ganglionic and central muscarinic receptors; assay: Cholinergic stimulant activity and specificity; settings: in words
[10] = tested on: enzyme which desactivates acetylcholine; assay: Stability to the enzyme which desactivates acetylcholine; assay type: in vitro ADME; settings: in words
Anticholinergic activity = settings: in words
Guinea-pig ileum = biological target: T1, Guinea-pig ileum (Cavia porcellus, UniProt H0W1Z3); assay: Antagonism in guinea-pig ileum (log Ki), Table 3; assay type: cell-based; settings: printed as log Ki (negative)
T1 construct: Guinea-pig ileum, log Ki; from tissue; host or cells: guinea-pig ileum
T1 sequence (H0W1Z3 1-590): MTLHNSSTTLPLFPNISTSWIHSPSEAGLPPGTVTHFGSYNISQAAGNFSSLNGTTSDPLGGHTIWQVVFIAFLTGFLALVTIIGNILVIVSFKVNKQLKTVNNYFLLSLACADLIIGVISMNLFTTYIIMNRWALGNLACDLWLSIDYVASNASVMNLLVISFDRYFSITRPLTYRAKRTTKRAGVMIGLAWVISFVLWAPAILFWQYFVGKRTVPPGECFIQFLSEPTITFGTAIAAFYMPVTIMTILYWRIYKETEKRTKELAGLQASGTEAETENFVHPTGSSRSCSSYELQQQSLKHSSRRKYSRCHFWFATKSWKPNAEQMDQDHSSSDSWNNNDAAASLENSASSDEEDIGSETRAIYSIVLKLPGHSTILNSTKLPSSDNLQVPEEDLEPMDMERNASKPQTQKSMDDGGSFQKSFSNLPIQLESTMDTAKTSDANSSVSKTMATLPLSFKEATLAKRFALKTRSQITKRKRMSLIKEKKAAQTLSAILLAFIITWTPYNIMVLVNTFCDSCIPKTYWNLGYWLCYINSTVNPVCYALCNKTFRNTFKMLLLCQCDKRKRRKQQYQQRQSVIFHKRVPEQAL

LD50 in mice, Table 3 = settings: mouse, in vivo, sc
mydriatic activity = assay: Relative mydriatic activity, Table 3; assay type: in vivo; settings: atropine sulphate = 1
[11] = tested on: Oxotromorine induced tremors and salivation; assay: CNS/PNS activity (ED50 blockade of tremors / ED50 blockade of salivation); assay type: in vivo, Mice; settings: ED50 for blockade of tremors divided by ED50 for blockade of salivation; 95% confidence limits
Source text: as §6

[12] = tested on: Physostigmine induced lethality; assay: Antagonism to physostigmine induced lethality; assay type: in vivo, Mice; settings: Mus musculus, sc
Source text: as §6

With `CC1OCC2(CN3CCC2CC3)O1` (single isomer, unassigned; isomer 2) [cis-isomer, 2-methyl spiro (1,3-dioxolane-4,3') quinuclidine] the “biological activity of the cis-isomer” value [1] was “greater biological activity”.
For `CC(=O)OC1CN2CCC1CC2` (stereo not drawn) [3-Acetoxyquinuclidine], the ED50 (mice [2]) was 7.5 mg/kg and 36.5 µmol/kg, the ED50 (blood pressure) was 0.0002 mg/kg and 0.001 µmol/kg and the “Fall blood pressure EPMR” value (blood pressure; cat) was 6.25. For the same compound, the “Guinea pig ileum induced contraction EPMR” value (Guinea pig ileum) was 14, the LD50 ([3]; sc) was 112 mg/kg and the ED50 (mice [4]) was 7.5 mg/kg and 36.5 µmol/kg. For the same compound, the ED50 (mice [5]) was 1.8 mg/kg and 8.8 µmol/kg and the “Salivation ED50 (ip)” value (mice [6]) was 2.9 mg/kg.
In the case of `CC(=O)OC(C)C[N+](C)(C)C` (stereo not drawn) [Acetyl-β-methyl choline], the “Guinea pig ileum induced contraction EPMR” value (Guinea pig ileum) is reported as 3.6.
`CC(=O)OCC[N+](C)(C)C` [Acetylcholine] showed an ED50 (blood pressure; cat) of 0.00016 µmol/kg.
For `CN1[C@@H]2CC[C@H]1CC(OC(=O)C(CO)c1ccccc1)C2` (stereo partly drawn) [Atropine Sulphate, reference compound], the “antagonism to McN-A-343 induced contraction of NM ED50 (ia)” value (SCG) was 1.4 µmol, the ED50 [7] was 0.039 µmol/kg and the ED50 [8] was 1 µmol/kg.
For `CC1OCC2(CN3CCC2CC3)O1` (stereo not drawn) [Example 1, 2-Methyl spiro (1,3-dioxolane-4,3')Quinuclidine], the cholinergic stimulant activity [9] was “specific and powerful cholinergic stimulant”, the “specificity towards autonomic ganglionic and central muscarinic receptors” value [9] was “high degree of specificity” and the “destruction by the enzyme which desactivates acetylcholine” value [10] was “not destroyed by the enzyme which desactivates acetylcholine”.
With `c1ccc(C2(c3ccccc3)OCC3(CN4CCC3CC4)O2)cc1` (stereo not drawn) [Example 3, 2,2-diphenyl spiro (1,3-dioxolane-4,3')quinuclidine] the anticholinergic activity (Anticholinergic activity) was “powerful anticholinergic agent”.
For `CC1OCC2(CN3CCC2CC3)O1` (stereo not drawn) [I,R1 =H,R2 =-CH3.HCl, 2-methyl spiro (1,3-dioxolane-4,3') quinuclidine], the ED50 (mice [2]; mice) was 4.5 mg/kg and 20.5 µmol/kg, the ED50 (blood pressure; cat) was 0.0066 mg/kg and 0.0301 µmol/kg and the “Fall blood pressure EPMR” value (blood pressure; cat) was 188. The “Guinea pig ileum induced contraction EPMR” value (Guinea pig ileum) was 240, the LD50 ([3]; sc) was 220 mg/kg and the ED50 (mice [4]; mice) was 4.5 mg/kg and 20.5 µmol/kg. For the same compound, the ED50 (mice [5]; mice) was 3 mg/kg and 13.7 µmol/kg.
In the case of `c1ccc(C2(c3ccccc3)OCC3(CN4CCC3CC4)O2)cc1` (stereo not drawn) [I,R1 =R2 =phenyl,HCl, 2,2-diphenyl spiro (1,3-dioxolane-4,3')quinuclidine], the Ki (Guinea-pig ileum) is reported as 0.251 nM, the “antagonism to McN-A-343 induced contraction of NM ED50 (ia)” value (SCG) is reported as 0.5 µmol and the LD50 (LD50 in mice, Table 3) is reported as 40 mg/kg. For the same compound, the Relative mydriatic activity (mydriatic activity) was 1.5, the ED50 [7] was 0.28 µmol/kg and the ED50 [8] was 0.31 µmol/kg. For the same compound, the CNS/PNS activity [11] was 1.1(0.77-1.56) and the ED50 [12] was 0.2 µmol/kg.
In the case of `O=C1CCCN1CC#CCN1CCCC1` [Oxotremorine], the LD50 ([3]; ip) is reported as 5 mg/kg, the ED50 (mice [4]; mice) is reported as 0.14 mg/kg and 0.73 µmol/kg and the ED50 (mice [5]; mice) is reported as 0.12 mg/kg and 0.63 µmol/kg.

From patent US4104397A, “Spiro (1,3-dioxolane-4,3') quinuclidine compounds” (The Purdue Frederick Company, priority 1975, dated 1978)
